From patent publication US20170190671A1, “BIS(ARYL)CATECHOL DERIVATIVES AS HERBICIDES” (E I DU PONT DE NEMOURS AND COMPANY, priority 2014, published 2017)

Legend:
[1] = tested on: winter wheat (Triticum aestivum); test: Test C preemergence; format: in vivo; conditions: Triticum aestivum, pre-emergence, 336 h, preemergence, scale 0 to 100, read-out: Plant response rating, Wheat
Outline: (§1)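 Visual ratings (0 none to 100 complete control) were made 13 to 15 days after treatment, relative to controls. Test chemicals, formulated in a non-phytotoxic solvent mixture with surfactant, were applied in the greenhouse preemergence to seeded loam-sand soil or postemergence to plants 2 to 18 cm tall.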

[2] = tested on: barnyardgrass (Echinochloa crus-galli); test: Test C preemergence; format: in vivo; conditions: Echinochloa crus-galli, pre-emergence, preemergence, scale 0 to 100, read-out: Plant response rating, Barnyardgrass
Outline: as §1

[3] = tested on: blackgrass (Alopecurus myosuroides); test: Test C preemergence; format: in vivo; conditions: Alopecurus myosuroides, pre-emergence, 336 h, preemergence, scale 0 to 100, read-out: Plant response rating, Blackgrass
Outline: as §1

[4] = tested on: galium (catchweed bedstraw, Galium aparine); test: Test C preemergence; format: in vivo; conditions: Galium, pre-emergence, 336 h, preemergence, scale 0 to 100, read-out: Plant response rating, Galium
Outline: as §1

[5] = tested on: giant foxtail (Setaria faberii); test: Test C preemergence; format: in vivo; conditions: Setaria faberi, pre-emergence, 336 h, preemergence, scale 0 to 100, read-out: Plant response rating, Foxtail, Giant
Outline: as §1

corn (Zea mays) = test: Test C preemergence; format: in vivo; conditions: Zea mays, pre-emergence, 336 h, preemergence, scale 0 to 100
Outline: as §1

[6] = tested on: morningglory (Ipomoea coccinea); test: Test C preemergence; format: in vivo; conditions: Ipomoea, pre-emergence, 336 h, preemergence, scale 0 to 100, read-out: Plant response rating, Morningglory
Outline: as §1

[7] = tested on: velvetleaf (Abutilon theophrasti); test: Test C preemergence; format: in vivo; conditions: Abutilon theophrasti, pre-emergence, preemergence, scale 0 to 100, read-out: Plant response rating, Velvetleaf
Outline: as §1

[8] = tested on: yellow nutsedge (Cyperus esculentus); test: Test C preemergence; format: in vivo; conditions: Cyperus, pre-emergence, 336 h, preemergence, scale 0 to 100, read-out: Plant response rating, Nutsedge, Yellow
Outline: as §1

[9] = tested on: johnsongrass (Sorghum halepense); test: Test C preemergence; format: in vivo; conditions: Sorghum halepense, pre-emergence, 336 h, preemergence, scale 0 to 100, read-out: Plant response rating, Johnsongrass
Outline: as §1

[10] = tested on: oilseed rape (Brassica napus); test: Test C preemergence; format: in vivo; conditions: Brassica napus, pre-emergence, preemergence, scale 0 to 100, read-out: Plant response rating, Oilseed Rape
Outline: as §1

[11] = tested on: pigweed (Amaranthus retroflexus); test: Test C preemergence; format: in vivo; conditions: Amaranthus retroflexus, pre-emergence, 336 h, preemergence, scale 0 to 100, read-out: Plant response rating, Pigweed
Outline: as §1

soybean (Glycine max) = test: Test C preemergence; format: in vivo; conditions: Glycine max, pre-emergence, preemergence, scale 0 to 100, read-out: Plant response rating, Soybean
Outline: as §1

[12] = tested on: large (Lg) crabgrass (Digitaria sanguinalis); test: Test C preemergence; format: in vivo; conditions: Digitaria sanguinalis, pre-emergence, 336 h, preemergence, scale 0 to 100, read-out: Plant response rating, Crabgrass, Large
Outline: as §1

[13] = tested on: ragweed (common ragweed, Ambrosia elatior); test: Test C preemergence; format: in vivo; conditions: Ambrosia artemisiifolia, pre-emergence, 336 h, preemergence, scale 0 to 100, read-out: Plant response rating, Ragweed
Outline: as §1

[14] = tested on: lambsquarters (Chenopodium album); test: Test C preemergence; format: in vivo; conditions: Chenopodium album, pre-emergence, 336 h, preemergence, scale 0 to 100, read-out: Plant response rating, Lambsquarters
Outline: as §1

kochia (Kochia scoparia) = test: Test C postemergence; format: in vivo; conditions: Bassia scoparia, post-emergence, Postemergence, scale 0 to 100, read-out: Plant response rating, Kochia
Outline: as §1

[15] = tested on: winter wheat (Triticum aestivum); test: Test C postemergence; format: in vivo; conditions: Triticum aestivum, post-emergence, 336 h, Postemergence, scale 0 to 100, read-out: Plant response rating, Wheat
Outline: as §1

[16] = tested on: galium (catchweed bedstraw, Galium aparine); test: Test C postemergence; format: in vivo; conditions: Galium, post-emergence, 336 h, Postemergence, scale 0 to 100, read-out: Plant response rating, Galium
Outline: as §1

[17] = tested on: morningglory (Ipomoea coccinea); test: Test C postemergence; format: in vivo; conditions: Ipomoea, post-emergence, 336 h, Postemergence, scale 0 to 100, read-out: Plant response rating, Morningglory
Outline: as §1

[18] = tested on: velvetleaf (Abutilon theophrasti); test: Test C postemergence; format: in vivo; conditions: Abutilon theophrasti, post-emergence, Postemergence, scale 0 to 100, read-out: Plant response rating, Velvetleaf
Outline: as §1

[19] = tested on: large (Lg) crabgrass (Digitaria sanguinalis); test: Test C postemergence; format: in vivo; conditions: Digitaria sanguinalis, post-emergence, 336 h, Postemergence, scale 0 to 100, read-out: Plant response rating, Crabgrass, Large
Outline: as §1

Clc1cnc(Oc2cccc(Cl)c2Oc2ncc(Br)cn2)nc1 [Compound 17, 5-bromo-2-[2-chloro-6-[(5-chloro-2-pyrimidinyl)oxy]phenoxy]pyrimidine]
95%: pest or weed control at 125 g/ha ([3]; 125 g ai/ha) | pest or weed control at 31 g/ha ([5]; 31 g ai/ha) | pest or weed control at 62 g/ha ([7]; 62 g ai/ha) | pest or weed control at 125 g/ha ([14]; 125 g ai/ha) | pest or weed control at 125 g/ha (kochia (Kochia scoparia); 125 g ai/ha) | pest or weed control at 250 g/ha (kochia (Kochia scoparia); 250 g ai/ha) | pest or weed control at 250 g/ha ([16]; 250 g ai/ha)
45%: plant injury at 62 g/ha ([1]; 62 g ai/ha) | plant injury at 125 g/ha (soybean (Glycine max); 125 g ai/ha)
50%: pest or weed control at 62 g/ha ([9]; 62 g ai/ha)
98%: pest or weed control at 62 g/ha ([4]; 62 g ai/ha) | pest or weed control at 125 g/ha ([6]; 125 g ai/ha) | plant injury at 250 g/ha ([10]; 250 g ai/ha)
166 to 169 °C: melting point
40%: plant injury at 125 g/ha ([1]; 125 g ai/ha) | pest or weed control at 31 g/ha ([6]; 31 g ai/ha) | pest or weed control at 125 g/ha ([18]; 125 g ai/ha)
30%: pest or weed control at 31 g/ha ([18]; 31 g ai/ha)
65%: pest or weed control at 31 g/ha ([7]; 31 g ai/ha)
100%: pest or weed control at 125 g/ha ([2]; 125 g ai/ha) | pest or weed control at 250 g/ha ([2]; 250 g ai/ha) | pest or weed control at 125 g/ha ([4]; 125 g ai/ha) | pest or weed control at 62 g/ha ([5]; 62 g ai/ha) | pest or weed control at 125 g/ha ([5]; 125 g ai/ha) | pest or weed control at 125 g/ha ([7]; 125 g ai/ha) | pest or weed control at 250 g/ha ([7]; 250 g ai/ha) | plant injury at 125 g/ha ([10]; 125 g ai/ha) | pest or weed control at 31 g/ha ([11]; 31 g ai/ha) | pest or weed control at 62 g/ha ([11]; 62 g ai/ha) | pest or weed control at 125 g/ha ([11]; 125 g ai/ha) | pest or weed control at 31 g/ha ([12]; 31 g ai/ha) | pest or weed control at 62 g/ha ([12]; 62 g ai/ha) | pest or weed control at 125 g/ha ([12]; 125 g ai/ha)
70%: plant injury at 250 g/ha (soybean (Glycine max); 250 g ai/ha) | pest or weed control at 31 g/ha ([16]; 31 g ai/ha) | pest or weed control at 250 g/ha ([17]; 250 g ai/ha) | pest or weed control at 250 g/ha ([18]; 250 g ai/ha)
55%: Corn plant response rating (crop injury, 0 = no effect, 100 = complete kill) at 125 g/ha (corn (Zea mays); 125 g ai/ha) | pest or weed control at 125 g/ha ([8]; 125 g ai/ha) | pest or weed control at 125 g/ha ([13]; 125 g ai/ha)
80%: pest or weed control at 62 g/ha ([16]; 62 g ai/ha)
0%: plant injury at 31 g/ha ([1]; 31 g ai/ha) | Corn plant response rating (crop injury, 0 = no effect, 100 = complete kill) at 31 g/ha (corn (Zea mays); 31 g ai/ha) | pest or weed control at 31 g/ha ([8]; 31 g ai/ha) | pest or weed control at 31 g/ha ([13]; 31 g ai/ha) | plant injury at 31 g/ha ([15]; 31 g ai/ha) | plant injury at 62 g/ha ([15]; 62 g ai/ha) | plant injury at 125 g/ha ([15]; 125 g ai/ha) | plant injury at 250 g/ha ([15]; 250 g ai/ha)
25%: pest or weed control at 62 g/ha ([13]; 62 g ai/ha)
15%: Corn plant response rating (crop injury, 0 = no effect, 100 = complete kill) at 62 g/ha (corn (Zea mays); 62 g ai/ha)
85%: plant injury at 250 g/ha ([1]; 250 g ai/ha) | pest or weed control at 62 g/ha ([2]; 62 g ai/ha) | pest or weed control at 125 g/ha ([9]; 125 g ai/ha) | plant injury at 31 g/ha ([10]; 31 g ai/ha) | pest or weed control at 250 g/ha ([13]; 250 g ai/ha) | pest or weed control at 31 g/ha ([14]; 31 g ai/ha) | pest or weed control at 125 g/ha ([17]; 125 g ai/ha)
20%: pest or weed control at 31 g/ha ([2]; 31 g ai/ha) | plant injury at 62 g/ha (soybean (Glycine max); 62 g ai/ha)
90%: pest or weed control at 62 g/ha ([3]; 62 g ai/ha) | pest or weed control at 31 g/ha ([4]; 31 g ai/ha) | plant injury at 62 g/ha ([10]; 62 g ai/ha) | pest or weed control at 62 g/ha ([14]; 62 g ai/ha) | pest or weed control at 31 g/ha (kochia (Kochia scoparia); 31 g ai/ha) | pest or weed control at 62 g/ha (kochia (Kochia scoparia); 62 g ai/ha) | pest or weed control at 125 g/ha ([16]; 125 g ai/ha) | pest or weed control at 31 g/ha ([17]; 31 g ai/ha) | pest or weed control at 62 g/ha ([17]; 62 g ai/ha)
5%: plant injury at 31 g/ha (soybean (Glycine max); 31 g ai/ha) | pest or weed control at 31 g/ha ([19]; 31 g ai/ha) | pest or weed control at 62 g/ha ([19]; 62 g ai/ha)
60%: pest or weed control at 31 g/ha ([3]; 31 g ai/ha) | pest or weed control at 62 g/ha ([6]; 62 g ai/ha)
35%: pest or weed control at 62 g/ha ([18]; 62 g ai/ha)
10%: pest or weed control at 62 g/ha ([8]; 62 g ai/ha) | pest or weed control at 31 g/ha ([9]; 31 g ai/ha) | pest or weed control at 125 g/ha ([19]; 125 g ai/ha) | pest or weed control at 250 g/ha ([19]; 250 g ai/ha)
